From patent publication US12606585B2, “Fluorinated hexoses” (Stichting Radboud Universiteit, priority 2020, dated 2026) come the findings set out here.

In assay [1] the test system is THP-1 cells. As to the kind of experiment: Onset and recovery of inhibition. In kind it is cell-based. The note with it: 100 μM, AAL lectin; for inhibition at 100 µM: Homo sapiens, 72 h, read-out: inhibition of fucosylation after 3 days. The protocol: Cells were cultured in medium containing different concentrations of unnatural sugar derivatives on 96-wells plates (suspension cell lines; 13,000-20,000 cells per well) (Thermo Scientific). DMSO, at same dilution as the unnatural sugar derivative stock solutions, was used as a positive control for lectin staining; P-Fuc2F was used for all concentrations as negative control. Cells were incubated for eight days at 37° C. and 5% CO2 in a humidified incubator. Medium was changed after three and six days of incubation with cell culture medium without unnatural sugar derivatives. Every day cells were harvested and washed with 100 μl 1× CF-blocking buffer (Vector Laboratories Inc.) containing 1 mM CaCl2) and 1 mM MgCl2. The cells were then resuspended in 50 μl 0.5 μg/ml of either 0.5 ng/ml biotinylated AAL, AOL, SNA, MAL-II, WGA, LCA, PSA, PNA, PHA-L or GSL-1 lectin in 1× carbo-free blocking buffer or with 50 μl of non-supplemented 1× carbo-free blocking buffer and incubated at 4-8° C. for 45-60 min. Cells were washed with 3×100 μl PBA (PBS containing 1% v/v FBS and 0.1% w/w sodium azide), incubated with 40 μl 1 μg/ml Streptavidin-phycoerythrin conjugate (Invitrogen, eBioscience) in PBA for 10-15 min at 4-8° C. Cells were then washed again with 3×100 μl PBA, resuspended in PBA and fluorescence was measured with a flow cytometer (Beckman & Dickinson FACS-Calibur). Each replicate for each condition with >10,000 gated events. Data was processed using FlowJo (FlowJo LLC). Percentage of lectin binding was obtained by normalizing the MFI values to the MFI values of the respective DMSO control.
The onset of inhibition and duration for recovery was evaluated on THP-1 cells with 100 and 10 μM compound using the AAL lectin (FIG. 5). At 100 μM concentration compounds 9 and 10 inhibit fucosylation after 1 day and to over 50% after 3 days. Fucosylation was fully recovered to normal 5 levels on day 6. […] Similar results were obtained using the AOL lectin.

The test system of assay [2] is THP-1 cells. Put plainly: Lectin staining for fucose expression inhibition, THP-1 cells. The format is cell-based. The note with it: Homo sapiens, 72 h, 3 days, 0-512 μM compound, flow cytometry. The protocol:
THP-1 cells (TIB-202, ATCC) and Jurkat cells (TIB-152, ATCC) were cultured in RPMI-1640 medium containing 2 mM Glutamine and 25 mM HEPES (Gibco™, Life Technologies), supplemented with 10% v/v heat-inactivated fetal bovine serum (FBS) (Gibco™, Life Technologies) and 1× antibiotic-antimycotic solution (100 units/mL of penicillin, 100 μg/mL of streptomycin, and 0.25 μg/mL Fungizone) (Gibco™, Life Technologies) and passaged every 3-4 day by seeding a fraction of 0.5-2 min cells of the culture per 10 ml medium. EL-4 cells (TIB-39, ATCC) were cultured in DMEM medium (Gibco™, Life Technologies), supplemented with 10% v/v heat-inactivated fetal bovine serum (FBS) (Gibco™, Life Technologies), 1× antibiotic-antimycotic solution (100 units/mL of penicillin, 100 μg/mL of streptomycin, and 0.25 μg/mL Fungizone) (Gibco™, Life Technologies) and 2 mM Glutamine (Gibco™, Life Technologies) and passaged every 2-4 days by seeding a fraction of 0.5-1 min cells of the culture per 10 ml medium. For passaging a T75 flask (Corning), medium was removed and the monolayer was washed with 10 ml PBS pH 7.2 without CaCl2) and MgCl2 (Gibco™, Life Technologies) before adding 3.5 ml 0.05% trypsin/EDTA solution (Gibco™ 5 Life Technologies) in PBS. Cells were incubated at rt for 30-45 s after which the trypsin/EDTA-solution was removed. Cells were incubated for an additional 2 min at 37° C., 5.0% CO2 and resuspended in cell culture medium. Cells were then seeded at ˜40.000 cells/cm^2 in new culture flasks. All cells were cultured at 37° C., 5% CO2 in a humidified incubator.
Protocol below was repeated until n>=3 for each compounds using cells at different passage numbers. Cells were cultured in medium containing different concentrations of unnatural sugar derivatives on either 24-wells plates (adherent cell lines; 80,000 cells per well) (Corning) or 96-wells plates (suspension cell lines; 13,000-20,000 cells per well) (Thermo Scientific). DMSO, at same dilution as the unnatural sugar derivative stock solutions, was used as a positive control for lectin staining; P-Fuc2F was used for all concentrations as negative control. Cells were incubated for three days at 37° C. and 5% CO2 in a humidified incubator. Cells were harvested and washed with 100 μl 1×CF-blocking buffer (Vector Laboratories Inc.) containing 1 mM CaCl2) and 1 mM MgCl2. The cells were then resuspended in 50 μl 0.5 μg/ml of 0.5 ng/ml biotinylated lectin in 1× carbo-free blocking buffer and incubated at 4-8° C. for 45-60 min. Cells were washed with 3×100 μl PBA (PBS containing 1% v/v FBS and 0.1% w/w sodium azide), incubated with 40 μl 1 μg/ml Streptavidin-phycoerythrin conjugate (Invitrogen, eBioscience) in PBA for 10-15 min at 4-8° C. Cells were then washed again with 3×100 μl PBA, resuspended in PBA and fluorescence was measured with a flow cytometer (Beckman & Dickinson FACS-Calibur). Each replicate for each condition with >10,000 gated events. Data was processed using FlowJo (FlowJo LLC). Percentage of lectin binding was obtained by normalizing the MFI values to the MFI values of the respective DMSO control.
Three cell lines (THP-1, Jurkat, EL4) were cultured for 3 days with 0-512 μM compound. The cells were stained with two fucose specific lectins (AAL & AOL) and analysed by flow cytometry, presented as mean percentage lectin binding normalized to control (n=3).
A general note: Flow cytometry measures light scatter and fluorescence of single cells or particles in a stream.

[3] abbreviates: AAL lectin, n=3, read-out: EC50 for fucose expression inhibition, THP-1 AAL.
[4] abbreviates: AOL lectin, n=3, read-out: EC50 for fucose expression inhibition, THP-1 AOL.

What is called inhibition is the change of the read-out against control, counted positive when it falls. The EC50 is the concentration giving half of the maximal effect.

Read-outs that look alike come from different tables or passages of the source.

Turning to `CC(=O)OC1C(OC(C)=O)[C@H](OC(C)=O)C(C(F)F)O[C@@H]1OP(=O)(OCCSC(C)=O)OCCSC(C)=O` (stereo partly drawn) [P-D-Rha6F2-1P (9), Di-(S-acetyl-2-thioethyl)-(2,3,4-tri-O-acetyl-6,6-difluoro-α-D-rhamnopyranoside) phosphate], in assay [1], the “onset of fucosylation inhibition” value came out at 1 days. Besides, the inhibition at 100 µM in assay [1] is over 50%. Further, the values for the concentration giving a half-maximal response (EC50) in assay [2] (setting [3]) and in assay [2] (setting [4]) were 1.97 µM and 5.26 µM, respectively.
The corresponding values for `CC(=O)OC1C(OC(C)=O)[C@H](OC(C)=O)C(C(F)(F)F)O[C@@H]1OP(=O)(OCCSC(C)=O)OCCSC(C)=O` (stereo partly drawn) [P-D-Rha6F3-1P (10), Di-(S-acetyl-2-thioethyl)-(2,3,4-tri-O-acetyl-6,6,6-trifluoro-α-D-mannopyranoside) phosphate] are 1 days, over 50%, 0.608 µM and 0.454 µM.
